Test results published in PMC8947439, “Antimicrobial Properties of a Peptide Derived from the Male Fertility Factor kl2 Protein of Drosophila melanogaster” (Current Issues in Molecular Biology, 2022).
Residues, ends and D or L forms follow the SMILES beside them.

How the values were obtained:
B. subtilis ATCC 9372 = assay type: cell-based, Bacillus subtilis
Experimental: (§1) Bacteria were grown in brain heart infusion (BHI) medium broth at 37 °C. For the microdilution assay (MDA) and minimal inhibitory concentration (MIC) assay, bacteria in the mid-logarithmic phase were harvested and diluted to 4 × 10^5 CFU/mL with Dulbecco’s PBS. Bacteria were incubated with a series of 2-fold dilutions of indicated peptides or PBS for 2 h. The number of viable bacteria were enumerated by counting the colony-forming units (CFU). The MIC was defined as the lowest antimicrobial concentration which prevents the visible growth of bacteria.

E. coli HB101 [1] = assay type: cell-based, Escherichia coli; conditions: HB101, 2 h
Experimental: as §1

E. coli HB101 [2] = test: microdilution assay (MDA), viable counts (CFU); assay type: cell-based, Escherichia coli; conditions: peptide 100 μM, 2 h, 4 × 10^5 CFU/mL in Dulbecco's PBS, CFU counting, N = 3
Experimental: as §1

S. aureus 8325-4 = test: microdilution assay (MDA), viable counts (CFU); assay type: cell-based, Staphylococcus aureus; conditions: peptide 100 μM, 2 h, 4 × 10^5 CFU/mL in Dulbecco's PBS, CFU counting, N = 3
Experimental: as §1

Molecule | percent of killing (B. subtilis ATCC 9372; ATCC 9372, 2 h, 100 μM) | MIC (E. coli HB101 [1]) [µM] | antimicrobial activity, inhibition of viable counts (E. coli HB101 [2]) | antimicrobial activity, inhibition of viable counts (B. subtilis ATCC 9372; peptide 100 μM, 2 h, 4 × 10^5 CFU/mL in Dulbecco's PBS, CFU counting, N = 3) | antimicrobial activity, inhibition of viable counts (S. aureus 8325-4)
CC[C@H](C)[C@H](NC(=O)[C@H](CC(C)C)NC(=O)[C@H](C)NC(=O)[C@H](CCCNC(=N)N)NC(=O)[C@H](Cc1ccccc1)NC(=O)[C@H](CC(C)C)NC(=O)[C@H](CCCCN)NC(=O)[C@@H](N)CCCNC(=N)N)C(=O)N[C@@H](CCC(N)=O)C(=O)N[C@@H](C)C(=O)N[C@@H](CS)C(=O)N[C@@H](CC(=O)O)C(=O)N[C@@H](CCCNC(=N)N)C(=O)N[C@@H](CCCCN)C(=O)O [MFF-p1] (H-RKLFRALIQACDRK-OH) | around 90% | 6 to 12.5 |  |  | 
LKDVFRDFIVVCQK [Z-p1, peptide that is a part of the Zizimin protein of Drosophila melanogaster] |  |  | did not demonstrate antimicrobial activity | did not demonstrate antimicrobial activity | did not demonstrate antimicrobial activity
